The values below come from PMC6271858, “Identification of Natural Compound Carnosol as a Novel TRPA1 Receptor Agonist” (Molecules, 2014).

One series has as its target human TRPA1 (Homo sapiens, UniProt O75762). Description: Calcium mobilization agonist assay in HEK293/TRPA1 cells. The note with it: for EC80 value: agonist concentration used to evoke the antagonist assay. The class given is cell-based. As to the method:
HEK293/TRPA1 cells were seeded at a density of 3.5 × 10^4 per well into 96-well clear-bottom black plates coated with matrigel and incubated in 5% CO2 at 37 °C overnight. On the day of assay, the growth medium was replaced by 100 µL loading buffer containing a final concentration of 4 μM Ca^2+-sensitive dye Fluo-4 AM and 2 mM acid red 1 in HBSS. The plate was then incubated at 37 °C in dark for 30 min before calcium signal read out. For antagonists study, 80 µL loading buffer was added into each well and 20 µL HBSS containing tested compound was added 10 min prior to calcium-flux measurement.
Cells were transferred to a Flexstation II (Molecular Devices) for experimentation. Basal fluorescence was recorded for 16 s before agonist application. The integrated Flexstation II fluidics system added 25 µL compound (5× solution) from the agonist compound plate to the assay plate containing 100 µL loading buffer solution. Relative fluorescence units (RFU) were read by FlexStation II at 37 °C with an excitation wavelength of 485 nm and an emission wavelength of 525 nm. The fluorescence intensity was read every 1.52 s for 80 s.
Ninety µM CA and 0.25% DMSO were used as the positive and negative control respectively during primary screening of TRPA1 agonist. Hits above the cutoff value (50%) were picked for retesting, percentage of increased calcium signal was calculated as following equation: (2) Activity%=RFUcompound−RFUnegative/RFUpositive−RFUnegative×100
For orientation: Calcium assays in cells follow changes in intracellular calcium, usually with a dye or a luminescent sensor.

The next series relates to HEK293 host cells. Nature of the series: Compound specificity assay, calcium influx in HEK293 host cells. The series is classed as cell-based, human. The settings on record: compared with 0.25% DMSO group; positive control 5 μM ATP. As to the method: To observe whether the identified compounds induce calcium influx in HEK293 host cells, the cells were treated with various concentrations of tested compounds. Meanwhile, 5 μM ATP and 0.25% DMSO were used as the positive and negative control, respectively. The regulatory activity of tested samples was defined as follows: (3) Activity%=RFUcompound/RFUpositive×100

The next series concerns HEK293/TRPA1 cells. Description: Compound cytotoxicity assay (CellTiter-Glo, luciferase coupled ATP quantitation). The series is classed as cell-based, human. The note with it: 2 h incubation, compared to the control group. The protocol:
HEK293/TRPA1 cells were seeded at 3.5 × 10^4 per well into 96-well clear-bottom black plates and incubated in 5% CO2 at 37 °C overnight. Different concentrations of the compound were added into the 96-well plates and incubated in 5% CO2 at 37 °C for 2 h. Luminescence was read by Envision 2100 multilabel reader to detect cells’ viability following incubation with CellTiter-Glo reagent for 10 min.
For orientation: In ATP-based viability assays light output follows the ATP content of the culture.

The target in another series is T1, TRPV3 (Homo sapiens, UniProt Q8NET8).
T1 sequence (Q8NET8 1-790): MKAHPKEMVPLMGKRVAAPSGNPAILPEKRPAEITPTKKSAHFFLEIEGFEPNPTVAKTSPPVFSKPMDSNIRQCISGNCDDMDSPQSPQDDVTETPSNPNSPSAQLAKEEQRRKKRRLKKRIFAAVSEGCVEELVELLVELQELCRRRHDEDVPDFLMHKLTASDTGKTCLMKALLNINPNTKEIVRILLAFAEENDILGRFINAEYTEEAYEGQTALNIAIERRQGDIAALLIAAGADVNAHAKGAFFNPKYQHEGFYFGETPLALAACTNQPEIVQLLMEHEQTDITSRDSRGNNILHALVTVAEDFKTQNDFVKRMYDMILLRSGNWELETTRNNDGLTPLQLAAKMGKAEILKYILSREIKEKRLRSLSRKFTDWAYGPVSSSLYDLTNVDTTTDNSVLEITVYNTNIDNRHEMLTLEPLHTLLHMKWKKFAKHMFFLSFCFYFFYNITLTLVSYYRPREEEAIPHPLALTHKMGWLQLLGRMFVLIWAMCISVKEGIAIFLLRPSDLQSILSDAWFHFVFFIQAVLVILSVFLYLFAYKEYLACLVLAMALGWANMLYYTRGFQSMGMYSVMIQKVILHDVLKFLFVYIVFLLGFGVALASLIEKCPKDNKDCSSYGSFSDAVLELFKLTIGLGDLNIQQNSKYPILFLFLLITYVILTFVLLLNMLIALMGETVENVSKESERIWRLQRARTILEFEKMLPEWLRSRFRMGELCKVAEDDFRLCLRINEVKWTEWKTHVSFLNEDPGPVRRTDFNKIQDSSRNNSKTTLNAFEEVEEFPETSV
Nature of the series: Compound selectivity calcium mobilization assay in HEK293/TRPV3 cells. The series is classed as cell-based. The note with it: series of concentrations. As to the method:
All HEK293 cell lines used in this study were routinely maintained in DMEM containing 10% FBS, 100 U/mL penicillin, and 100 μg/mL streptomycin in a humidified atmosphere of 5% CO2 at 37 °C. HEK293/TRPA1, HEK293/TRPM8 and HEK293/TRPV3 cells were incubated with complete culture medium along with 50 μg/mL hygromycin B.
(§1) To study the specificity of the action target of identified compounds, the activating effect on TRPM8 and TRPV3 was tested. HEK293 cell lines stably expressing TRPM8 and TRPV3 receptors were separately stimulated by a serious concentrations of identified compounds using calcium mobilization assay as described above.

The next series deals with TRPM8 (Homo sapiens, UniProt Q7Z2W7). Nature of the series: Compound selectivity calcium mobilization assay in HEK293/TRPM8 cells. The series is classed as cell-based. As to the method: HEK 293 cell lines stably expressing human TRPA1, TRPM8 and TRPV3 channels, respectively, were established by HD Bioscience Co. Ltd (SH, China) according to the cell line generation procedure in published articles of our laboratory. All HEK293 cell lines used in this study were routinely maintained in DMEM containing 10% FBS, 100 U/mL penicillin, and 100 μg/mL streptomycin in a humidified atmosphere of 5% CO2 at 37 °C. HEK293/TRPA1, HEK293/TRPM8 and HEK293/TRPV3 cells were incubated with complete culture medium along with 50 μg/mL hygromycin B.
as §1

“Also recorded” adds a separate entry of the source. Like-named read-outs stand apart in the source and are kept apart here.

human TRPA1, sequence (O75762 whole entry): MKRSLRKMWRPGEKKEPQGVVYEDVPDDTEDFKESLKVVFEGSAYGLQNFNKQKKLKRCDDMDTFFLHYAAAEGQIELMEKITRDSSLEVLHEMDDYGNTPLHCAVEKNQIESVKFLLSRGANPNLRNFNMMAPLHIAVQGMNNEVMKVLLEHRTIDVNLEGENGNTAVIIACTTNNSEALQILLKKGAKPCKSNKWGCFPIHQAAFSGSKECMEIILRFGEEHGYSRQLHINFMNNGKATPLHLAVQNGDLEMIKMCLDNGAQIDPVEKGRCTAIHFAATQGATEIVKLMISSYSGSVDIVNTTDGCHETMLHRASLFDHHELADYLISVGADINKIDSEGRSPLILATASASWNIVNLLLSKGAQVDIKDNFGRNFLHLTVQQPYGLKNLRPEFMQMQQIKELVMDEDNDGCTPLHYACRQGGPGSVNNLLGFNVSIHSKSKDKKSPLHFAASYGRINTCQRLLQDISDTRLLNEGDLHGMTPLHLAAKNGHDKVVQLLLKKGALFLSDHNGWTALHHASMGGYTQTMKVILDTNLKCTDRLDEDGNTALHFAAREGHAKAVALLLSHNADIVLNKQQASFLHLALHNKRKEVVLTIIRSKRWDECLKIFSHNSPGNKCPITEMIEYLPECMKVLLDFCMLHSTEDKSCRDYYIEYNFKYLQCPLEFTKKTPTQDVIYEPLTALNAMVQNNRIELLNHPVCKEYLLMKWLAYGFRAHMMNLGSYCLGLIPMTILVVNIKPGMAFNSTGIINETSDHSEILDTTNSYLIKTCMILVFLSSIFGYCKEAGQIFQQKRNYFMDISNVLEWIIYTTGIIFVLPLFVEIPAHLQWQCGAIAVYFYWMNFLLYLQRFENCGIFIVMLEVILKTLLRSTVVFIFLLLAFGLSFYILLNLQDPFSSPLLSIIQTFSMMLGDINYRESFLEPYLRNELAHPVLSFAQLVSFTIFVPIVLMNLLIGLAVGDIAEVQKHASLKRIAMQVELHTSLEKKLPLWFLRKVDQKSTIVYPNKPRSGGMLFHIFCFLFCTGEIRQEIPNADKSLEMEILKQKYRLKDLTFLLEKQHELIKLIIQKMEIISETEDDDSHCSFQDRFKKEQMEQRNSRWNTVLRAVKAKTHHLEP
TRPM8, sequence (Q7Z2W7 whole entry): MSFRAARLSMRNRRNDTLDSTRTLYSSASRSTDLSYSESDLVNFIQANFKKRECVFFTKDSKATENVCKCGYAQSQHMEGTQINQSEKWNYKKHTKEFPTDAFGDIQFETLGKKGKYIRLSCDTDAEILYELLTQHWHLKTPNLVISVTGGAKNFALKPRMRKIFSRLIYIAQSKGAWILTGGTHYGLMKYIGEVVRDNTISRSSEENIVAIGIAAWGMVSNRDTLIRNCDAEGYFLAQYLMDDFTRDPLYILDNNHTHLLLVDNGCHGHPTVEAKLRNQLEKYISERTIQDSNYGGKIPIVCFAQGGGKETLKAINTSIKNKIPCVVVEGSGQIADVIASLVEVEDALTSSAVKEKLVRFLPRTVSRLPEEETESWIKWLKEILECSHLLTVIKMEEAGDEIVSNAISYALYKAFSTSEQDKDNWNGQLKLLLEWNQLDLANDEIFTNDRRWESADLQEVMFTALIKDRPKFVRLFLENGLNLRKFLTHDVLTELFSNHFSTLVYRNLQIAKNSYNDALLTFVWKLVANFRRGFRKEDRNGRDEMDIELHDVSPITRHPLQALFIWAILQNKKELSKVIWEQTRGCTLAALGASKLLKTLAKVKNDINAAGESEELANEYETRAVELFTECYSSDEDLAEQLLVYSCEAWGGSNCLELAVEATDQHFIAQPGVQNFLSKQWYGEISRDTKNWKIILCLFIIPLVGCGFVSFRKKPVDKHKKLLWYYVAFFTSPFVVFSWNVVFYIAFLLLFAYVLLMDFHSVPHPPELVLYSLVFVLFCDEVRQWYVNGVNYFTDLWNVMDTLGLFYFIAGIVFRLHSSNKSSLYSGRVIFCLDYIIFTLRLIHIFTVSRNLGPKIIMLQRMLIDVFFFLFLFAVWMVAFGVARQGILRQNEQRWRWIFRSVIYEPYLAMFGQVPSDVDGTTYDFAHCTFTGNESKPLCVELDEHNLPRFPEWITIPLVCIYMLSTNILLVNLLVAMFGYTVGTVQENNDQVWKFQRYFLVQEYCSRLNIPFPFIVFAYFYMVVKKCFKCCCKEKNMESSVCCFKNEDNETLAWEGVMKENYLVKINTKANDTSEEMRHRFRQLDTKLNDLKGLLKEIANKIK

In general, EC50 refers to the concentration giving half of the maximal effect. For the molecule `O=C/C=C/c1ccccc1` [CA, cinnamaldehyde, reference compound], the EC50 on human TRPA1 worked out at 31.5 µM. Besides, on human TRPA1 (HEK293/TRPA1 cells), the EC80 value worked out at 90 µM.

With `CC(C)c1cc2c(c(O)c1O)[C@@]1(C(=O)O)CCCC(C)(C)[C@@H]1CC2` [carnosic acid, Carnosic acid], on human TRPA1 (at 90 µM), the “Calcium signal in HEK293/TRPA1 cell line” value is “caused calcium signal”. The “Calcium signal in HEK293 host cells” value with HEK293 host cells is reported as “acted on HEK293 host cells”.

Regarding `CC(C)c1cc2c(c(O)c1O)[C@@]13CCCC(C)(C)[C@@H]1C[C@@H]2OC3=O` [carnosol, Carnosol], the “Calcium signal in primary screening” value at human TRPA1 (10 μM, HEK293/TRPA1 cells, positive control 90 µM CA, negative control 0.25% DMSO) was “showed significant difference compared with the negative control; also recorded: comparable to the positive control”. Besides, the EC80 value on human TRPA1 (HEK293/TRPA1 cells) was determined as 30 µM. For the same molecule, the half-maximal effective concentration (EC50) on human TRPA1 (HEK293/TRPA1 cells, calcium mobilization, agonist concentration-response, read-out: EC50) stood at 12.5 µM. The “Cytotoxicity on HEK293/TRPA1 cells” value in the series on HEK293/TRPA1 cells is “no significant cytotoxicity”. For the same molecule, the “Calcium signal in HEK293 host cells” value in the series on HEK293 host cells is recorded as “no significant difference”. Further, on TRPV3, the “Stimulation signal in HEK/TRPV3 cell line” value is recorded as “no stimulation signal”. In addition, on TRPM8 (series of concentrations, calcium mobilization), the “Stimulation signal in HEK/TRPM8 cell line” value is listed as “no stimulation signal”.

Consider `O=C1NC(c2cccc([N+](=O)[O-])c2)=CCN1c1ccccc1O` [icilin, Icilin, reference compound], for which the EC50 on TRPM8 (HEK293/TRPM8 cells, calcium response (data not shown)) turned out to be 0.17 µM.

`C[C@H]1[C@H](C)CC[C@]2(C(=O)O)CC[C@]3(C)C(=CC[C@@H]4[C@@]5(C)CC[C@H](O)C(C)(C)[C@@H]5CC[C@]43C)[C@H]12` [ursolic acid, Ursolic acid]: the “Calcium signal in HEK293/TRPA1 cell line” value on human TRPA1 (up to 90 µM) is “no significant calcium signal”.
